From the supplement of paper PMC10307832 come the findings set out here.

Each structure is given as a SMILES string.

One experiment concerns LXF-289. Briefly: relative viability (nuclei count vs DMSO), 5 days (fraction); higher = more cells survive. The settings on record: first compound 8 µM. In a few lines:
(§1)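 Relative viability equals treated-well nuclei counts divided by vehicle-well nuclei counts. Counts came from 4× images of lung cancer cell lines grown in 1536-well plates for 5 days after pin-tool dosing on the day after seeding. Dosing used one drug alone or a fixed anchor-drug dose plus five library-drug doses (not always all listed) in √10 steps, and values are medians of duplicate plates.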
With `CCCCCCCCCCCC1=C(O)C(=O)C=C(O)C1=O` [Embelin] + Cc1nc(Nc2ncc(C(=O)Nc3c(C)cccc3Cl)s2)cc(N2CCN(CCO)CC2)n1 [Dasatinib] (partner 0.075 µM), the relative viability is 0.222.
Same read-out and setting: next, `CCCCCCCCCCCC1=C(O)C(=O)C=C(O)C1=O` [Embelin] + CC(=O)c1c(C)c2cnc(Nc3ccc(N4CCNCC4)cn3)nc2n(C2CCCC2)c1=O [Palbociclib] (partner 0.5 µM): 0.613; `CCCCCCCCCCCC1=C(O)C(=O)C=C(O)C1=O` [Embelin] + COc1cccc2cc(-c3nc([C@H]4CC[C@H](C(=O)O)CC4)n4ncnc(N)c34)[nH]c12 [OSI-027] (partner 0.5 µM): 0.873.
The same measure, in the same setting: next, `CCCCCCCCCCCC1=C(O)C(=O)C=C(O)C1=O` [Embelin] + Nc1nc2[nH]cc(CCc3ccc(C(=O)N[C@@H](CCC(=O)O)C(=O)O)cc3)c2c(=O)[nH]1 [Pemetrexed] (partner 0.2 µM): 1.08.

For another experiment, the system named is HCC-827. The description is as above. The following applies: first compound 0.08 µM. In a few lines:
as §1
Take `CCCCCCCCCCCC1=C(O)C(=O)C=C(O)C1=O` [Embelin] + CCNC(=O)c1noc(-c2cc(C(C)C)c(O)cc2O)c1-c1ccc(CN2CCOCC2)cc1 [Luminespib] (partner 0.01 µM): the relative viability was 0.857.
The same measure, in the same setting: next, `CCCCCCCCCCCC1=C(O)C(=O)C=C(O)C1=O` [Embelin] + Cc1nc(Nc2ncc(C(=O)Nc3c(C)cccc3Cl)s2)cc(N2CCN(CCO)CC2)n1 [Dasatinib] (partner 0.075 µM): 0.333; `CCCCCCCCCCCC1=C(O)C(=O)C=C(O)C1=O` [Embelin] + CC(=O)c1c(C)c2cnc(Nc3ccc(N4CCNCC4)cn3)nc2n(C2CCCC2)c1=O [Palbociclib] (partner 0.5 µM): 0.506.
The same measure, in the same setting: next, `CCCCCCCCCCCC1=C(O)C(=O)C=C(O)C1=O` [Embelin] + COc1cccc2cc(-c3nc([C@H]4CC[C@H](C(=O)O)CC4)n4ncnc(N)c34)[nH]c12 [OSI-027] (partner 0.5 µM): 0.749.
For the molecule `CCCCCCCCCCCC1=C(O)C(=O)C=C(O)C1=O` [Embelin] + Nc1nc2[nH]cc(CCc3ccc(C(=O)N[C@@H](CCC(=O)O)C(=O)O)cc3)c2c(=O)[nH]1 [Pemetrexed] (partner 0.2 µM), the relative viability came to 0.26.

Staying with this experiment, now noted: first compound 0.8 µM.
Turning to `CCCCCCCCCCCC1=C(O)C(=O)C=C(O)C1=O` [Embelin] + CCNC(=O)c1noc(-c2cc(C(C)C)c(O)cc2O)c1-c1ccc(CN2CCOCC2)cc1 [Luminespib] (partner 0.01 µM), the relative viability worked out at 0.885.
As to `CCCCCCCCCCCC1=C(O)C(=O)C=C(O)C1=O` [Embelin] + Cc1nc(Nc2ncc(C(=O)Nc3c(C)cccc3Cl)s2)cc(N2CCN(CCO)CC2)n1 [Dasatinib] (partner 0.075 µM), the relative viability was 0.406.
Still for that read-out and setting: the same measure for `CCCCCCCCCCCC1=C(O)C(=O)C=C(O)C1=O` [Embelin] + CC(=O)c1c(C)c2cnc(Nc3ccc(N4CCNCC4)cn3)nc2n(C2CCCC2)c1=O [Palbociclib] (partner 0.5 µM): 0.486; for `CCCCCCCCCCCC1=C(O)C(=O)C=C(O)C1=O` [Embelin] + COc1cccc2cc(-c3nc([C@H]4CC[C@H](C(=O)O)CC4)n4ncnc(N)c34)[nH]c12 [OSI-027] (partner 0.5 µM): 0.797.
For `CCCCCCCCCCCC1=C(O)C(=O)C=C(O)C1=O` [Embelin] + Nc1nc2[nH]cc(CCc3ccc(C(=O)N[C@@H](CCC(=O)O)C(=O)O)cc3)c2c(=O)[nH]1 [Pemetrexed] (partner 0.2 µM), the relative viability was determined as 0.284.

The experiment is the same for the next values; noted with them: first compound 2.53 µM.
As to `CCCCCCCCCCCC1=C(O)C(=O)C=C(O)C1=O` [Embelin] + CCNC(=O)c1noc(-c2cc(C(C)C)c(O)cc2O)c1-c1ccc(CN2CCOCC2)cc1 [Luminespib] (partner 0.01 µM), the relative viability was found to be 0.864.
In turn, `CCCCCCCCCCCC1=C(O)C(=O)C=C(O)C1=O` [Embelin] + Cc1nc(Nc2ncc(C(=O)Nc3c(C)cccc3Cl)s2)cc(N2CCN(CCO)CC2)n1 [Dasatinib] (partner 0.075 µM) came in with a relative viability of 0.404.
On the same count and under the same terms, next, `CCCCCCCCCCCC1=C(O)C(=O)C=C(O)C1=O` [Embelin] + CC(=O)c1c(C)c2cnc(Nc3ccc(N4CCNCC4)cn3)nc2n(C2CCCC2)c1=O [Palbociclib] (partner 0.5 µM): 0.511; `CCCCCCCCCCCC1=C(O)C(=O)C=C(O)C1=O` [Embelin] + COc1cccc2cc(-c3nc([C@H]4CC[C@H](C(=O)O)CC4)n4ncnc(N)c34)[nH]c12 [OSI-027] (partner 0.5 µM): 0.836.
The same measure, in the same setting: the same measure for `CCCCCCCCCCCC1=C(O)C(=O)C=C(O)C1=O` [Embelin] + Nc1nc2[nH]cc(CCc3ccc(C(=O)N[C@@H](CCC(=O)O)C(=O)O)cc3)c2c(=O)[nH]1 [Pemetrexed] (partner 0.2 µM): 0.285.

Still in this experiment, the particulars now being: first compound 8 µM.
Regarding `CCCCCCCCCCCC1=C(O)C(=O)C=C(O)C1=O` [Embelin] + CCNC(=O)c1noc(-c2cc(C(C)C)c(O)cc2O)c1-c1ccc(CN2CCOCC2)cc1 [Luminespib] (partner 0.01 µM), the relative viability is 0.657.
`CCCCCCCCCCCC1=C(O)C(=O)C=C(O)C1=O` [Embelin] + Cc1nc(Nc2ncc(C(=O)Nc3c(C)cccc3Cl)s2)cc(N2CCN(CCO)CC2)n1 [Dasatinib] (partner 0.075 µM) showed a relative viability of 0.321.
Same read-out and setting: next, `CCCCCCCCCCCC1=C(O)C(=O)C=C(O)C1=O` [Embelin] + CC(=O)c1c(C)c2cnc(Nc3ccc(N4CCNCC4)cn3)nc2n(C2CCCC2)c1=O [Palbociclib] (partner 0.5 µM): 0.461; `CCCCCCCCCCCC1=C(O)C(=O)C=C(O)C1=O` [Embelin] + COc1cccc2cc(-c3nc([C@H]4CC[C@H](C(=O)O)CC4)n4ncnc(N)c34)[nH]c12 [OSI-027] (partner 0.5 µM): 0.866; `CCCCCCCCCCCC1=C(O)C(=O)C=C(O)C1=O` [Embelin] + Nc1nc2[nH]cc(CCc3ccc(C(=O)N[C@@H](CCC(=O)O)C(=O)O)cc3)c2c(=O)[nH]1 [Pemetrexed] (partner 0.2 µM): 0.259.

For a further experiment, the system named is CAL-12T. The experiment is described as above. The following applies: first compound 0.08 µM. In a few lines:
as §1
The molecule `CCCCCCCCCCCC1=C(O)C(=O)C=C(O)C1=O` [Embelin] + CCNC(=O)c1noc(-c2cc(C(C)C)c(O)cc2O)c1-c1ccc(CN2CCOCC2)cc1 [Luminespib] (partner 0.01 µM) registered a relative viability of 0.499.
Molecule `CCCCCCCCCCCC1=C(O)C(=O)C=C(O)C1=O` [Embelin] + Cc1nc(Nc2ncc(C(=O)Nc3c(C)cccc3Cl)s2)cc(N2CCN(CCO)CC2)n1 [Dasatinib] (partner 0.075 µM) returned a relative viability of 0.414.
The molecule `CCCCCCCCCCCC1=C(O)C(=O)C=C(O)C1=O` [Embelin] + CC(=O)c1c(C)c2cnc(Nc3ccc(N4CCNCC4)cn3)nc2n(C2CCCC2)c1=O [Palbociclib] (partner 0.5 µM) had a relative viability of 0.483.
Regarding `CCCCCCCCCCCC1=C(O)C(=O)C=C(O)C1=O` [Embelin] + COc1cccc2cc(-c3nc([C@H]4CC[C@H](C(=O)O)CC4)n4ncnc(N)c34)[nH]c12 [OSI-027] (partner 0.5 µM), the relative viability worked out at 0.538.
Consider `CCCCCCCCCCCC1=C(O)C(=O)C=C(O)C1=O` [Embelin] + Nc1nc2[nH]cc(CCc3ccc(C(=O)N[C@@H](CCC(=O)O)C(=O)O)cc3)c2c(=O)[nH]1 [Pemetrexed] (partner 0.2 µM), for which the relative viability was 1.11.

Staying with this experiment, now noted: first compound 0.8 µM.
In turn, `CCCCCCCCCCCC1=C(O)C(=O)C=C(O)C1=O` [Embelin] + CCNC(=O)c1noc(-c2cc(C(C)C)c(O)cc2O)c1-c1ccc(CN2CCOCC2)cc1 [Luminespib] (partner 0.01 µM) yielded a relative viability of 0.69.
On the same count and under the same terms, the same measure for `CCCCCCCCCCCC1=C(O)C(=O)C=C(O)C1=O` [Embelin] + Cc1nc(Nc2ncc(C(=O)Nc3c(C)cccc3Cl)s2)cc(N2CCN(CCO)CC2)n1 [Dasatinib] (partner 0.075 µM): 0.522.
